Consider 19 compounds from ChEMBL document CHEMBL5230129, “Antibacterial activities with the structure-activity relationship of coumarin derivatives” (2020).

≈ marks a conversion by molar mass, not a printed value.

What is called MIC is the lowest concentration that inhibits growth of the organism.

Common to all, as to type: functional
Assay [1] has as its system Pseudomonas aeruginosa. Briefly: Antibacterial activity against Pseudomonas aeruginosa assessed as inhibition of bacterial growth incubated for 24 hrs by broth microdilution assay. On the technique in general: In broth dilution the organism is exposed to a series of concentrations in liquid medium.
Assay [2] relates to Klebsiella pneumoniae. The assay is described as follows: Antibacterial activity against Klebsiella pneumoniae assessed as zone of inhibition incubated for 24 hrs by disk diffusion assay. (A growth-free zone around the sample is the usual read-out of agar diffusion tests.)
For assay [3], the system named is Escherichia coli. The assay is described as follows: Antibacterial activity against Escherichia coli MTCC 40 assessed as zone of inhibition incubated for 24 hrs by well-plate method.
The test system of assay [4] is Staphylococcus aureus. Briefly: Antibacterial activity against Staphylococcus aureus MTCC 121 assessed as zone of inhibition incubated for 24 hrs by well-plate method.
The subject of assay [5] is Staphylococcus aureus. Briefly: Antibacterial activity against Staphylococcus aureus MTCC 121 assessed as inhibition of bacterial growth incubated for 24 hrs by well-plate method.
Assay [6] relates to Escherichia coli. Briefly: Antibacterial activity against Escherichia coli MTCC 40 assessed as inhibition of bacterial growth incubated for 24 hrs by well-plate method.
Assay [7] concerns Bacillus subtilis. The assay is described as follows: Antibacterial activity against Bacillus subtilis assessed as inhibition of bacterial growth relative to control.
Assay [8] has as its system Escherichia coli. The assay is described as follows: Antibacterial activity against Escherichia coli assessed as inhibition of bacterial growth relative to control.
Assay [9] relates to Escherichia coli. The assay is described as follows: Antibacterial activity against Escherichia coli MTCC 739 assessed as inhibition of bacterial growth incubated for 24 hrs by spectrophotometric assay.
The test system of assay [10] is Escherichia coli. The assay is described as follows: Antibacterial activity against Escherichia coli MTCC 1586 assessed as zone of inhibition incubated overnight by Kirby-Bauer disc diffusion method.
Assay [11] relates to Staphylococcus aureus. Briefly: Antibacterial activity against Staphylococcus aureus MTCC 740 assessed as zone of inhibition incubated overnight by Kirby-Bauer disc diffusion method.
In assay [12] the test system is Sphingomonas paucimobilis. Briefly: Antibacterial activity against Flavobacterium devorans ATCC 10829 assessed as inhibition of bacterial growth incubated for 24 hrs by serial twofold dilution assay.
The test system of assay [13] is Escherichia coli. The assay is described as follows: Antibacterial activity against Escherichia coli NCIM 2256 assessed as inhibition of bacterial growth incubated for 24 hrs by serial twofold dilution assay.
Assay [14] deals with Pseudomonas fluorescens. The assay is described as follows: Antibacterial activity against Pseudomonas fluorescens NCIM 2173 assessed as inhibition of bacterial growth incubated for 24 hrs by serial twofold dilution assay.
The subject of assay [15] is Staphylococcus aureus. Briefly: Antibacterial activity against Staphylococcus aureus assessed as zone of inhibition incubated for 24 to 48 hrs by agar well diffusion assay. Particulars: time 24-48 hrs.
Assay [16] relates to Staphylococcus aureus. The assay is described as follows: Antibacterial activity against Staphylococcus aureus NCTC-7447 assessed as zone of inhibition incubated for 24 hrs by paper disk diffusion assay.
In assay [17] the test system is Staphylococcus aureus. The assay is described as follows: Antibacterial activity against Staphylococcus aureus ATCC-29213 assessed as inhibition of bacterial growth incubated for 16 hrs by agar-well diffusion assay.
Assay [18] has as its system Bacillus cereus. Briefly: Antibacterial activity against Bacillus cereus MTCC 430 assessed as zone of inhibition incubated overnight by Kirby-Bauer disc diffusion method.
For assay [19], the system named is Bacillus subtilis. Briefly: Antibacterial activity against Bacillus subtilis ATCC 10876 assessed as zone of inhibition incubated for 24 hrs by paper disk method.
For assay [20], the system named is Staphylococcus aureus. The assay is described as follows: Antibacterial activity against Staphylococcus aureus ATCC 25923 assessed as zone of inhibition incubated for 24 hrs by paper disk method.
The test system of assay [21] is Escherichia coli. The assay is described as follows: Antibacterial activity against Escherichia coli ATCC 25922 assessed as zone of inhibition incubated for 24 hrs by paper disk method.
The subject of assay [22] is Pseudomonas aeruginosa. Briefly: Antibacterial activity against Pseudomonas aeruginosa ATCC 27853 assessed as zone of inhibition incubated for 24 hrs by paper disk method.

As for `C[C@H]1COc2c(N3CCN(C)CC3)c(F)cc3c(=O)c(C(=O)O)cn1c23.C[C@H]1COc2c(N3CCN(C)CC3)c(F)cc3c(=O)c(C(=O)O)cn1c23.O` [LEVOFLOXACIN], the MIC in assay [1] was 3.12 µg/mL.

For the compound `Cc1cc(=O)oc2cc(OCc3nnc(Nc4ccc(Br)cc4)s3)ccc12`, the “inhibition zone (IZ)” value in assay [2] is given as 16 mm.

Consider `O=c1oc2cc(Br)ccc2cc1-c1csc(N/N=C/c2cn(-c3ccccc3)nc2-c2cc3ccccc3oc2=O)n1`, for which the “inhibition zone (IZ)” value in [3] and in [4] was 22 mm each time. Moreover, the figures for the MIC in [5] and in [6] were 50 µg/mL (≈ 78.6 µM) and 12.5 µg/mL (≈ 19.6 µM), respectively.

With `COC(=O)c1nnn(CC(=O)c2cc3cc(Br)ccc3oc2=O)c1C(=O)OC`, the results for the “inhibition (INH)” value in [7] and in assay [8] were 82.2% and 88.8%, respectively.

Regarding `O=c1cc(OCc2cn(CN3CCN(c4ccccc4F)CC3)c(=S)s2)c2ccccc2o1`, the MIC in assay [9] came out at 12.5 µg/mL (≈ 25.8 µM).

Consider `COC(=O)c1nnn(CC(=O)c2cc3cc(C)ccc3oc2=O)c1C(=O)OC`, for which the “inhibition (INH)” value in assay [7] and in [8] was 83.3% in each case.

Take `COC(=O)c1nnn(CC(=O)c2cc3c(ccc4ccccc43)oc2=O)c1C(=O)OC`: the “inhibition (INH)” value in assay [7] and in assay [8] was 83.3% in each case.

As for `O=c1oc2ccc3ccccc3c2cc1-c1csc(N/N=C/c2cn(-c3ccccc3)nc2-c2cc3ccccc3oc2=O)n1`, in assay [3], the “inhibition zone (IZ)” value is listed as 21 mm.

With `CC[N+](CC)(CC)CCCCCCCCNCc1cn(Cc2cc(=O)oc3c(O)c4c(cc23)CCC(C)(C)O4)nn1.[Br-]`, the “inhibition zone (IZ)” value in assay [10] and in assay [11] was 2 mm each time.

With `CO/N=C(\C(=O)N[C@@H]1C(=O)N2C(C(=O)O)=C(COC(N)=O)CS[C@H]12)c1ccco1` [CEFUROXIME], the minimal inhibitory concentration (MIC) in assay [1] worked out at 98 µg/mL (≈ 231 µM).

In the case of `CC1(C)S[C@@H]2[C@H](NC(=O)[C@H](N)c3ccccc3)C(=O)N2[C@H]1C(=O)O` [AMPICILLIN], the MIC was 4 µg/mL (≈ 11.4 µM) in assay [12], 4 µg/mL (≈ 11.4 µM) in assay [13], 4 µg/mL (≈ 11.4 µM) in [14] and 6.25 µg/mL (≈ 17.9 µM) in assay [9].

Take `COc1cc(COc2cn(CCOc3cc(=O)oc4ccccc34)nn2)ccc1/C=C/C(=O)/C=C/c1cc(OC)c(OC)c(OC)c1`: the “inhibition zone (IZ)” value in assay [15] is 7 mm.

As to `O=c1oc2ccccc2c(O)c1-c1cc[nH]n1`, the “inhibition zone (IZ)” value in [16] came to 10 mm.

In the case of `CC(C)(C)NC(=O)c1c(-c2ccccc2)nc(SCc2cc(=O)oc3ccc4ccccc4c23)[nH]c1=O`, in [17], the MIC amounted to 2.5 µg/mL (≈ 4.89 µM).

Regarding GENTAMICIN, the inhibition zone (IZ) in [2] was found to be 16 mm.

With `CC[N+](CC)(CC)CCCCCCCCCCCCNCc1cn(Cc2cc(=O)oc3cc4c(cc23)CCC(C)(C)O4)nn1.[Br-]`, the figures for the “inhibition zone (IZ)” value in [10], in assay [18] and in [11] were 8 mm, 24 mm and 6 mm, respectively.

Regarding `NCC[C@H](O)C(=O)N[C@@H]1C[C@H](N)[C@@H](O[C@H]2O[C@H](CN)[C@@H](O)[C@H](O)[C@H]2O)[C@H](O)[C@H]1O[C@H]1O[C@H](CO)[C@@H](O)[C@H](N)[C@H]1O` [AMIKACIN], the “inhibition zone (IZ)” value in assay [19] came out at 18 mm; in assay [20] it was 20 mm; in assay [21], 17 mm; in assay [22], 17 mm.

As to `O=c1cc(OCc2cn(CN3CCN(c4ccc(F)cc4)CC3)c(=S)s2)c2ccccc2o1`, the MIC in assay [9] amounted to 12.5 µg/mL (≈ 25.8 µM).

On to `O=c1oc2ccccc2cc1-c1nn(-c2ccccc2)cc1/C=N/Nc1nc(-c2ccccc2)cs1`, for which the “inhibition zone (IZ)” value in assay [3] is reported as 19 mm.
